From ChEMBL document CHEMBL4837213, “Hybrids between H2S-donors and betamethasone 17-valerate or triamcinolone acetonide inhibit mast cell degranulation and promote hyperpolarization of bronchial smooth muscle cells” (Eur J Med Chem, 2021)
The source made the active and inactive calls. No cut-off for these calls is given here.

Assays:
[1] = Drug metabolism in human BSMC cells assessed as intracellular H2S release by measuring increase in fluorescence index at 300 uM measured every 5 mins for 60 mins by WSP-1 dye based spectrofluorometric analysis; format: ADME, cell-based; conditions: 1 h
[2] = system: BSMC; assay: (§1) Bronchodilatory activity in human BSMC cells assessed as induction of membrane hyperpolarization at 300 uM by spectrofluorometric analysis relative to NS1619; format: functional
[3] = (§2) Inhibition of DNP-HAS-stimulated mast cell degranulation in rat RBL-2H3 cells assessed as reduction in beta-hexosaminidase release at 300 uM incubated for 5 mins followed by DNP-HAS stimulation for 1 hr by multiplate reader analysis; format: functional; conditions: RBL-2H3, 1.083 h, time 65 min
[4] = (§3) Inhibition of DNP-HAS-stimulated mast cell degranulation in rat RBL-2H3 cells assessed as reduction in beta-hexosaminidase release at 100 uM incubated for 5 mins followed by DNP-HAS stimulation for 1 hr by multiplate reader analysis; format: functional; conditions: RBL-2H3, 1.083 h, time 65 min
[5] = system: BSMC; assay: (§4) Bronchodilatory activity in human BSMC cells assessed as induction of membrane hyperpolarization at 100 uM by spectrofluorometric analysis relative to NS1619; format: functional
[6] = Drug metabolism in human BSMC cells assessed as intracellular H2S release by measuring increase in fluorescence index at 100 uM measured every 5 mins for 60 mins by WSP-1 dye based spectrofluorometric analysis; format: ADME, cell-based; conditions: 1 h
[7] = system: RBL-2H3; assay: as §2; format: functional; conditions: time 65.0 min
[8] = as §1; format: functional
[9] = system: RBL-2H3; assay: as §3; format: functional; conditions: time 65.0 min
[10] = as §4; format: functional
[11] = Inhibition of DNP-HAS-stimulated mast cell degranulation in rat RBL-2H3 cells assessed as reduction in beta-hexosaminidase release at 1 mM incubated for 5 mins followed by DNP-HAS stimulation for 1 hr by multiplate reader analysis; format: functional; conditions: RBL-2H3, 1.083 h, time 65 min

| SMILES | Drug metabolism [1] | Drug metabolism [6] | inhibition [7] | also measured |
| --- | --- | --- | --- | --- |
| Oc1ccc(N=C=S)cc1 | Metabolite_Detected | Metabolite_Detected |  | Activity [2]: Active; inhibition at 300 µM [3]: 75%; inhibition at 100 µM [4]: 75%; Activity [5]: Active |
| CCCCC(=O)O[C@]1(C(=O)CO)[C@@H](C)C[C@H]2[C@@H]3CCC4=CC(=O)C=C[C@]4(C)[C@@]3(F)[C@@H](O)C[C@@]21C |  |  | inactive |  |
| CCCCC(=O)O[C@]1(C(=O)COC(=O)CCC(=O)Oc2ccc(N=C=S)cc2)[C@@H](C)C[C@H]2[C@@H]3CCC4=CC(=O)C=C[C@]4(C)[C@@]3(F)[C@@H](O)C[C@@]21C | Metabolite_Detected | Metabolite_Detected | Active | fold change (FC) [8]: 4; inhibition [9]: Active; fold change (FC) [10]: 4 |
| Oc1ccc(-c2cc(=S)ss2)cc1 | Metabolite_Notdetected | Metabolite_Notdetected |  |  |
| CCCCC(=O)O[C@]1(C(=O)COC(=O)CCC(=O)Oc2ccc(-c3cc(=S)ss3)cc2)[C@@H](C)C[C@H]2[C@@H]3CCC4=CC(=O)C=C[C@]4(C)[C@@]3(F)[C@@H](O)C[C@@]21C | Metabolite_Notdetected | Metabolite_Notdetected |  |  |
| CC1(C)O[C@@H]2C[C@H]3[C@@H]4CCC5=CC(=O)C=C[C@]5(C)[C@@]4(F)[C@@H](O)C[C@]3(C)[C@]2(C(=O)COC(=O)CCC(=O)Oc2ccc(C(N)=S)cc2)O1 | Metabolite_Notdetected | Metabolite_Notdetected |  |  |
| CCCCC(=O)O[C@]1(C(=O)COC(=O)CCC(=O)Oc2ccc(C(N)=S)cc2)[C@@H](C)C[C@H]2[C@@H]3CCC4=CC(=O)C=C[C@]4(C)[C@@]3(F)[C@@H](O)C[C@@]21C | Metabolite_Detected | Metabolite_Detected |  |  |
| O=C(O)c1cc(=O)c2c(OCC(O)COc3cccc4oc(C(=O)O)cc(=O)c34)cccc2o1 [CROMOLYN] |  |  |  | inhibition at 1000 µM [11]: 20% |
| CC1(C)O[C@@H]2C[C@H]3[C@@H]4CCC5=CC(=O)C=C[C@]5(C)[C@@]4(F)[C@@H](O)C[C@]3(C)[C@]2(C(=O)COC(=O)CCC(=O)Oc2ccc(N=C=S)cc2)O1 | Metabolite_Detected | Metabolite_Detected | Active | fold change (FC) [8]: 4; inhibition [9]: Active; fold change (FC) [10]: 4 |
| NC(=S)c1ccc(O)cc1 | Metabolite_Detected | Metabolite_Notdetected |  |  |
| C=CCSSCC=C [DIALLYLDISULFIDE] |  | Metabolite_Detected |  |  |
| CC1(C)O[C@@H]2C[C@H]3[C@@H]4CCC5=CC(=O)C=C[C@]5(C)[C@@]4(F)[C@@H](O)C[C@]3(C)[C@]2(C(=O)CO)O1 |  |  | inactive |  |
| CC1(C)O[C@@H]2C[C@H]3[C@@H]4CCC5=CC(=O)C=C[C@]5(C)[C@@]4(F)[C@@H](O)C[C@]3(C)[C@]2(C(=O)COC(=O)CCC(=O)Oc2ccc(-c3cc(=S)ss3)cc2)O1 | Metabolite_Detected | Metabolite_Notdetected |  |  |
